Earlier results as cited in US9744163B2, “Compositions of a polyorthoester and an aprotic solvent” (Heron Therapeutics, Inc., priority 2013, dated 2017).

CCOC(C)=O [ethyl acetate]
Water Miscibility (solubility in water): (8.3 g/100 ml)
